Source: patent publication US20260216133A1, “AEROSOL COMPRISING 5-METHOXY-N,N-DIMETHYLTRYPTAMINE” (GH Research Ireland Limited, priority 2020, published 2026)
Several values for one entry are separate records, joined by “and”; a condition that tells them apart may be missing. Equal values may be shown once.

Assays:
[1] = Aerosol particle formation rate (aerosolized dose/aerosolization time); format: physicochemical; conditions: aerosolization time 15 seconds
Protocol: The aerosol particle formation rate can be calculated as follows: Aerosol particle formation rate=Aerosolized dose/Aerosolization time. For the aerosolized dose data and the aerosolization time of 15 seconds from Example 2, the following aerosol particle formation rate was determined: […]

[2] = Aerosol 5-MeO-DMT mass density (aerosolized dose/aerosol volume); format: physicochemical; conditions: aerosol volume about 3 liters
Protocol: The aerosol 5-MeO-DMT mass density can be calculated as follows: Aerosol 5-MeO-DMT mass density =Aerosolized dose/Aerosol volume. For the aerosolized dose data and the aerosol volume of about 3 liters from Example 2, the following aerosol 5-MeO-DMT mass density was determined: […]

[3] = Degradation products of 5-MeO-DMT aerosol by HPLC after SPE extraction; conditions: 18 mg capsule, 210° C. aerosolization, Replicate 1, Extract 1; including the additional amount of Impurity 1
[4] = Particle size distribution of 5-MeO-DMT aerosol, Next Generation Impactor (NGI); format: physicochemical
Protocol: The particle size distribution of 5-MeO-DMT aerosol particles as generated according to the compositions and methods of the present invention are determined according to United States Pharmacopeia (USP) methods using the Next Generation Impactor (NGI) (United States Pharmacopeia (USP)<601> Apparatus 6) as shown in FIG. 2.
This device fractionates the bolus aerosol delivered into a discrete series of size ranges on the basis of particle or droplet inertia and provides a measure of the aerodynamic diameter of the aerosol droplets produced. The droplet size range captured by each stage in the NGI can be dependent on the measured airflow used. For the present analysis, experiments are carried out using an airflow of 30 liters/minute (Experiments 1 and 3) and of 15 liters/minute (Experiments 2 and 4).
Based on a log-normal distribution of particle sizes, the aerodynamic size distribution is characterized by the mass median aerodynamic diameter (MMAD) and geometric standard deviation (GSD). Moreover, the fine particle fraction (FPF) is determined as the weight percentage of droplets having an aerodynamic diameter of less than or equal to 5 μm, relative to the total of droplets on the impactor.
A first experiment is carried out using a Volcano Medic Vaporization System as described in Example 1 with dosing capsules having a nominal drug load of 6 mg 5-MeO-DMT free base/capsule. The aerosol recovered in the balloon is measured using the NGI operated using a flow rate of 30 liters/min.
A second experiment is carried also out using a Volcano Medic Vaporization System as described in Example 1 with dosing capsules having a nominal drug load of 6 mg 5-MeO-DMT free base/capsule. The aerosol recovered in the balloon is measured using the NGI operated using a flow rate of 15 liters/min.
In this experiment, NGI cups were coated with glycerol to prevent possible droplet re-entrainment. In addition, approximately 8 drops of 30% glycerol in water were added to each filter paper located underneath the corresponding NGI Stage Jets.

[5] = Aerosolization of 5-MeO-DMT from dosing capsules (Volcano Medic), aerosolized dose by weighing; conditions: triplicate capsules; for Aerosolized dose: 210° C., 12 l/min, 15 seconds
[6] = Experiment 1: 6 mg/capsule, NGI 30 liters/min, mean of 3 runs
[7] = Experiment 1: 6 mg/capsule, NGI 30 liters/min, single runs
[8] = Experiment 2: 6 mg/capsule, NGI 15 liters/min, Mean (Runs 1-3)
[9] = Experiment 2: 6 mg/capsule, NGI 15 liters/min, Mean (Runs 2, 3)
[10] = Experiment 3: 18 mg/capsule, NGI 30 liters/min, mean of 3 runs
[11] = Experiment 3: 18 mg/capsule, NGI 30 liters/min, single runs
[12] = Experiment 4: 18 mg/capsule, NGI 15 liters/min, glycerol-coated cups, single runs
[13] = Experiment 4: 18 mg/capsule, NGI 15 liters/min, mean of 3 runs

SMILES: COc1ccc2[nH]cc(CCN(C)C)c2c1 [5-MeO-DMT, 5-methoxy-N,N-dimethyltryptamine]
- Aerosol particle formation rate ([1]; target dosage 2 mg): 0.12 mg/s
- Aerosol particle formation rate ([1]; target dosage 18 mg): 1.09 mg/s and 1.08 mg/s
- Aerosol 5-MeO-DMT mass density ([2]; target dosage 2 mg): 0.62 mg/L
- Aerosol 5-MeO-DMT mass density ([2]; target dosage 18 mg): 5.45 mg/L and 5.38 mg/L and 5.43 mg/L
- total percentage of 5-MeO-DMT degradation products in the aerosol [3]: 0.19%
- FPF [4, 6]: 97.95%
- GSD [4, 6]: 3.49
- MMAD [4, 6]: 0.40 μm
- GSD [4, 7]: 4.70 and 3.05 and 2.71
- MMAD [4, 7]: 0.33 μm and 0.46 μm and 0.42 μm
- FPF ([4]; Experiment 1: 6 mg/capsule, NGI 30 liters/min, single runs, droplets <= 5 μm): 96.19% and 98.35% and 99.31%
- FPF [4, 8]: 94.85%
- GSD [4, 8]: 4.63
- MMAD [4, 8]: 0.57 μm
- FPF [4, 9]: 94.67%
- GSD [4, 9]: 3.20
- MMAD [4, 9]: 0.77 μm
- FPF ([4]; Experiment 2: 6 mg/capsule, NGI 15 liters/min, glycerol-coated cups, single runs, Run 1 may not be reliable): 95.22% and 93.54% and 95.79%
- FPF [4, 10]: 94.64%
- GSD [4, 10]: 2.65
- MMAD [4, 10]: 1.05 μm
- FPF [4, 11]: 93.13% and 94.08% and 96.72%
- GSD [4, 11]: 2.98 and 2.52 and 2.44
- MMAD [4, 11]: 0.98 μm and 1.19 μm and 0.97 μm
- FPF [4, 12]: 93.23% and 92.66% and 91.40%
- GSD [4, 12]: 2.66 and 2.77 and 2.10
- MMAD [4, 12]: 1.16 μm and 1.14 μm and 1.82 μm
- FPF [4, 13]: 92.43%
- GSD [4, 13]: 2.51
- MMAD [4, 13]: 1.37 μm
- Aerosolized dose, % of loaded dose ([5]; target dosage 2 mg): 100.5% and 99.5%
- Aerosolized dose ([5]; target dosage 2 mg): 1.9 mg
- Aerosolized dose, % of loaded dose ([5]; target dosage 18 mg): 96.3% and 96.5% and 95.9%
- Aerosolized dose ([5]; target dosage 18 mg): 16.3 mg and 16.2 mg
